In patent publication US8575145B2, “Triazolopyridine compounds as PIM kinase inhibitors” (Array BioPharma Inc., priority 2008, dated 2013):
Where a name gives a salt, the structure may show the parent alone. Read-outs that look alike come from different tables or passages of the source.

Tests used:
[1] = tested on: PC3 (Androgen independent prostate cancer); assay: Cellular Proliferation Assay, cell line A; format: cell-based; conditions: PC3, 72 hours, CelltiterBlue; read-out: Cell Line A antiproliferative IC50
Experimental: (§1) The assay for determination of the antiproliferative activity of multiple Pim inhibitors in the JAK2-driven cell lines was conducted as follows. Cells were plated out to 96-well plates at an initial density of 10,000 cells/well in 95 pt. Compounds were prepared at […] in DMSO by conducting 3-fold serial dilutions to give a 10-point dosing curve having a high dose of 1000 μM. Aliquots (5 μt) of these dilutions were then transferred to the appropriate wells of the 96-well plates containing cells to yield a final DMSO concentration of 0.5%. The cells were then incubated with compound for 72 hours at 37° C., 5% CO2. CelltiterBlue reagent (Promega, Catalog #: G8080) was then added (20 μL/well) and incubated at 37° C., 5% CO2 for 1-8 hours depending on the cell line being analyzed. The plate was then quantified employing a fluorescence plate reader (Model: Gemini [Molecular Devices]; Settings: 560 nm (Ex)/590 nm (Em) 570 nm (cut-off) [CellTiter Blue Assay].
(§2) The values for each well were then converted to a percent of untreated control (POC). These POC values were then plotted as a function of compound concentration. A 4-parameter curve-fit analysis was performed for each compound dilution and an IC50 value was calculated from this curve.
(§3) Cell lines • A: PC3 (Androgen independent prostate cancer) • B: K562 (Ph+chronic myelogenous leukemia) • C: MV4-11 (Acute myelogenous leukemia) • D: BxPC3 (Pancreatic Cancer) • E: HepG2 (Hepatocellular Carcinoma) • F: BaF3 (Mouse pro-B-cell line) • G: BaF3 TEL-JAK2 (Mouse pro-B-cell transformed with TEL-JAK2 fusion) • H: BaF2 BCR-Ab1 (Mouse pro-B-cell transformed with BCR-Ab1 fusion)

[2] = tested on: K562 (Ph+chronic myelogenous leukemia); assay: Cellular Proliferation Assay, cell line B; format: cell-based; conditions: Homo sapiens; K562, 72 hours, CelltiterBlue; read-out: Cell Line B antiproliferative IC50
Experimental: as §1, §2, §3

[3] = tested on: BxPC3 (Pancreatic Cancer); assay: Cellular Proliferation Assay, cell line D; format: cell-based; conditions: Homo sapiens, BXPC-3; BxPC3, 72 hours, CelltiterBlue; read-out: Cell Line D antiproliferative IC50
Experimental: as §1, §2, §3

[4] = tested on: HepG2 (Hepatocellular Carcinoma); assay: Cellular Proliferation Assay, cell line E; format: cell-based; conditions: Homo sapiens; HepG2, 72 hours, CelltiterBlue; read-out: Cell Line E antiproliferative IC50
Experimental: as §1, §2, §3

[5] = tested on: BaF3 (Mouse pro-B-cell line); assay: Cellular Proliferation Assay, cell line F; format: cell-based; conditions: BaF3, 72 hours, CelltiterBlue, read-out: Cell Line F antiproliferative IC50
Experimental: as §1, §2, §3

[6] = tested on: BaF3 TEL-JAK2 (Mouse pro-B-cell transformed with TEL-JAK2 fusion); assay: Cellular Proliferation Assay, cell line G; format: cell-based; conditions: BaF3 TEL-JAK2, 72 hours, CelltiterBlue, read-out: Cell Line G antiproliferative IC50
Experimental: as §1, §2, §3

[7] = tested on: BaF2 BCR-Ab1 (Mouse pro-B-cell transformed with BCR-Ab1 fusion); assay: Cellular Proliferation Assay, cell line H; format: cell-based; conditions: BaF2 BCR-Ab1, 72 hours, CelltiterBlue, read-out: Cell Line H antiproliferative IC50
Experimental: as §1, §2, §3

[8] = target: GST-tagged recombinant full-length human PIM-2 (Homo sapiens (Human), UniProt Q9P1W9); assay: PIM-2 Enzyme Assay; conditions: 4 μM ATP, […] PIM-2
recombinant rat PIM-3 = recombinant rat PIM-3 (Rattus norvegicus (Rat), UniProt O70444); assay: PIM-3 Enzyme Assay; conditions: 30 μM ATP, 0.5 nM PIM-3
Experimental: The amount of radiolabeled product is then measured by liquid scintillation counting. The final buffer conditions were as follows: 20 mM K^+MOPS, pH 7.4, 10 mM MgCl2, 0.005% Tween-20, 1 mM DTT. […] Incubations were carried out for 60 min at 22° C. and quenched with 75 μL of 200 mM H3PO4, filtered through a Whatman P81 plate and washed (1×200 μL and 5×100 μL ) with 200 mM H3PO4. Liquid scintillation cocktail (50 μL ) was then added per well, and the plate was counted for 30 s/well using a TopCount NXT.
One-μL aliquots of these were then transferred to the assay mixtures above to give a final concentration of DMSO of 2%. […] For each plate, percent of control (POC) values were calculated for each well. IC50's were estimated from the POC's using a standard 4-parameter logistic model. The IC50 is defined as the concentration of inhibitor at which the POC equals 50 for the fitted curve.

PIM-1 = PIM-1 (Homo sapiens (Human), UniProt P11309); assay: PIM-1 Enzyme Assay; format: biochemical; conditions: 35 μM ATP, 0.25 nM PIM-1
How it was run: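 Radiometric kinase assay in 20 mM K+MOPS pH 7.4, 10 mM MgCl2, 0.005% Tween-20, 1 mM DTT, 2% DMSO final; 60 min at 22° C, stopped with H3PO4, product captured on P81 filter and counted by scintillation. IC50 from 4-parameter logistic fit of percent of control.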

Chain of PIM-1 (P11309 whole entry, species assumed): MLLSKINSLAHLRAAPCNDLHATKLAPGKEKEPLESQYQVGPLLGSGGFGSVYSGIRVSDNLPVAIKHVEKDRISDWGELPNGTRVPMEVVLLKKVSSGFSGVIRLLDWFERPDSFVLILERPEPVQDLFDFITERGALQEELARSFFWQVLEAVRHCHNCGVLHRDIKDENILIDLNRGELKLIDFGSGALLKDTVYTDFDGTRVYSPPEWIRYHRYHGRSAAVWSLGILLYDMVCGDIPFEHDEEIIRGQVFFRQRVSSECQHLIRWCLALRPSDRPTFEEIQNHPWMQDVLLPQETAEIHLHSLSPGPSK
Chain of GST-tagged recombinant full-length human PIM-2 (Q9P1W9 whole entry): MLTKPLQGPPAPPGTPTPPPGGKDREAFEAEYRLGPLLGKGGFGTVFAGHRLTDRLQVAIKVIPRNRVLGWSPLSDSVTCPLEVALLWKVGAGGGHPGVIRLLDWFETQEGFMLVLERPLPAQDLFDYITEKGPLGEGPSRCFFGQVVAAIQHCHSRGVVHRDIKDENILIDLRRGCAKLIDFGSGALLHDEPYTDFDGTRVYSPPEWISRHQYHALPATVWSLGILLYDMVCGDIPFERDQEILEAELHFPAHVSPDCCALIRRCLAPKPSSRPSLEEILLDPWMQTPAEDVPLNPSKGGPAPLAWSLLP

SMILES	IC50 [1] [µM]	IC50 [2] [µM]	IC50 [3] [µM]	IC50 [4] [µM]	IC50 [5] [µM]	IC50 [6] [µM]	IC50 ([8]; read-out: PIM-2 IC50) [nM]	IC50 (recombinant rat PIM-3; read-out: PIM-3 IC50) [nM]	IC50 (PIM-1) [µM]	IC50 ([8]; PIM-2 IC50 (nM)) [nM]	IC50 (recombinant rat PIM-3; PIM-3 IC50 (nM)) [nM]	IC50 [7] [µM]
N[C@H]1CC[C@H](Oc2cccc3ccc(-c4nnc5ccccn45)nc23)CC1 [Example 17, (trans)-4-(2-([1,2,4]Triazolo[4,3-a]pyridin-3-yl)quinolin-8-yloxy)cyclohexanamine]	< 2	< 10	< 10	< 10	< 2	< 2	134	3	–	–	–	< 2
OC1(COc2cccc3ccc(-c4nnc5ccccn45)nc23)CCN(Cc2ccccc2)CC1 [Example 71, 4-((2-([1,2,4]triazolo[4,3-a]pyridin-3-yl)quinolin-8-yloxy)methyl)-1-benzylpiperidin-4-ol]	–	–	–	–	–	–	10000	112	0.016	–	–	–
c1cc(O[C@@H]2CCNC2)c2nc(-c3nnc4ccccn34)ccc2c1 [Example 11, (R)-2-([1,2,4]Triazolo[4,3-a]pyridin-3-yl)-8-(pyrrolidin-3-yloxy)quinoline]	–	–	–	–	–	–	2470	33	0.023	–	–	–

More lines, in order of falling IC50 (PIM-1), values ahead:

IC50 [1] [µM]	IC50 [2] [µM]	IC50 [3] [µM]	IC50 [4] [µM]	IC50 [5] [µM]	IC50 [6] [µM]	IC50 ([8]; read-out: PIM-2 IC50) [nM]	IC50 (recombinant rat PIM-3; read-out: PIM-3 IC50) [nM]	IC50 (PIM-1) [µM]	IC50 ([8]; PIM-2 IC50 (nM)) [nM]	IC50 (recombinant rat PIM-3; PIM-3 IC50 (nM)) [nM]	SMILES	IC50 [7] [µM]
–	–	–	–	–	–	–	–	0.012	290	8	FC1CCNCCC1Oc1cccc2ccc(-c3nnc4ccccn34)nc12 (single isomer, unassigned) [Example 50, 2-([1,2,4]triazolo[4,3-a]pyridin-3-yl)-8-(5-fluoroazepan-4-yloxy)quinoline dihydrochloride]	–
–	–	–	–	–	–	438	6.8	0.0048	–	–	c1cc(OC2CCCNCC2)c2nc(-c3nnc4ccccn34)ccc2c1 (single isomer, unassigned) [Example 127, 2-([1,2,4]triazolo[4,3-a]pyridin-3-yl)-8-(azepan-4-yloxy)quinoline]	–
< 10	> 10	–	–	< 2	< 2	1110	4.4	0.0016	–	–	c1cc(NC2CCNCC2)c2nc(-c3nnc4ccccn34)ccc2c1 [Example 1, 2-([1,2,4]Triazolo[4,3-a]pyridin-3-yl)-N-(piperidin-4-yl)quinolin-8-amine di-trifloroacetate]	< 10
–	–	–	–	–	–	244	3	0.001	–	–	Cc1ccn2c(-c3ccc4cccc(OC5CCNCCC5F)c4n3)nnc2c1 (single isomer, unassigned) [Example 92, cis-8-5-fluoroazepan-4-yloxy)-2-(7-methyl-[1,2,4]triazolo[4,3-a]pyridin-3-yl)quinoline]	–
–	–	–	–	–	–	–	–	0.0007	147	4	FC1CCNCCC1Oc1cccc2ccc(-c3nnc4ccccn34)nc12 (single isomer, unassigned) [Example 48, 2-([1,2,4]triazolo[4,3-a]pyridin-3-yl)-8-(5-fluoroazepan-4-yloxy)quinoline dihydrochloride]	–
